Laboratory results from patent publication US20230158034A1, “CO-TREATMENT WITH CDK4/6 AND CDK2 INHIBITORS TO SUPPRESS TUMOR ADAPTATION TO CDK2 INHIBITORS” (Pfizer Inc., priority 2020, published 2023).

Test system: phosphorylated peptides containing a minimal CDK consensus motif (SP or TP) in MCF7 cells
Assay: Phospho-proteomics (mass spectrometry) of CDK substrate phosphorylation after PF3600
Type: cell-based, Homo sapiens
Description: CDK2 substrate dynamics were globally assessed through phospho-proteomics.
Phospho-peptide enrichment was performed as previously described (Lapek et al., 2017b). Lyophilized phospho-peptides were then TMT-labeled and fractionated by reverse phase basic pH fractionation and fractions combined as previously described (Edwards and Haas, 2016). Fractions were lyophilized and stored at […] until MS analysis. For LC-MS2/MS3 analysis, samples were reconstituted in 10 μL of 5% acetonitrile in 5% formic acid and 8 μL of each fraction was injected on the Orbitrap Fusion Lumos for analysis.
Peptides were eluted on a 165-minute gradient of 7-32% solvent B (80% acetonitrile in 0.1% formic acid) at 300 nL/min on a PepMap RSLC C18 column (2 μm, 100 Å, 75 μm×50 cm) heated to 60° C. Spectra were acquired in Top Speed mode, with a 5 second cycle. MS1 data were collected in the Orbitrap at 60000 resolution across a range of 500-1500 m/z. An automatic gain control (AGC) target of 2×10^5 was used with a maximum injection time of 100 ms. MS2 data were acquired in the ion trap with a rapid scan rate, maximum injection time of 70 ms, and an AGC target of 2×10^4. The quadrupole was used for isolation, with an isolation window of 0.5 m/z. […]
Data were normalized in a multistep process as previously described (Lapek et al., 2017a). […] All phospho data was processed and analyzed at the peptide level.

`C[C@@]1(O)CCC[C@H]1n1c(=O)c(C(F)F)cc2cnc(NC3CCN(S(C)(=O)=O)CC3)nc21` [PF3600, 6-(difluoromethyl)-8-[(1R,2R)-2-hydroxy-2-methylcyclopentyl]-2-{[1-(methylsulfonyl)-piperidin-4-yl]amino}pyrido[2,3-d]pyrimidin-7(8H)-one] was tested, and the “number of SP/TP peptides whose phosphorylation was significantly reduced (p<0.05)” value (25 nM PF3600, 1 hr) was 40 peptides and the “fate of the reduced phosphopeptides at 24 hr” value (25 nM PF3600, 24 hr) was “vast majority of these rebounded to control levels”.
